These results are taken from article PMC3145970, “Specific CLK Inhibitors from a Novel Chemotype for Regulation of Alternative Splicing” (Chemistry & Biology, 2011).

Like-named read-outs stand apart in the source and are kept apart here.

What all share (experiment): Thermal stability shift assay
What all share (assay type): binding

For experiment [1], the target named is T1, ALK2 (Homo sapiens, UniProt Q04771).
T1 sequence (Q04771 21-509): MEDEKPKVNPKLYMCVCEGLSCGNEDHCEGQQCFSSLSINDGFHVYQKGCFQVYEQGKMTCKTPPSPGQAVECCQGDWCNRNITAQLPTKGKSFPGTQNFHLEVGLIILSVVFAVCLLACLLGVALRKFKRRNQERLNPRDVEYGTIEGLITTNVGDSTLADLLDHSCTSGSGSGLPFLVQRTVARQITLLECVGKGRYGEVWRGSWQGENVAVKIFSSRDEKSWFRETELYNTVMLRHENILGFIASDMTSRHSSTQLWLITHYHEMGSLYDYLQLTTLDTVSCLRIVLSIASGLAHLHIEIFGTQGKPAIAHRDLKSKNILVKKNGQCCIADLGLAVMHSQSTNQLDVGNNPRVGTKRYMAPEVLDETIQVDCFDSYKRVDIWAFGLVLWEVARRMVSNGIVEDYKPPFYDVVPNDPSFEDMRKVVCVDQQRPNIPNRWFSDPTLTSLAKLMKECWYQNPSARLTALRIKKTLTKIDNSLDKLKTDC
To be noted: read-out: Tm shift ALK2. The procedure:
(§1) Thermal denaturation experiments were carried out in an Mx3005p real-time PCR machine (Agilent) using a protein concentration of 2 μM and an inhibitor concentration of 10 μM. Samples were buffered in 10 mM HEPES (pH 7.5), 500 mM NaCl and a 1:1000 dilution of SyproOrange (Invitrogen). The assay and data evaluation were carried out as described ([Bullock et al., 2005])

The target in experiment [2] is T2, IKKb (Homo sapiens, UniProt O14920).
T2 construct: purchased in-house (SGC Oxford thermal shift panel)
T2 sequence (O14920 1-756): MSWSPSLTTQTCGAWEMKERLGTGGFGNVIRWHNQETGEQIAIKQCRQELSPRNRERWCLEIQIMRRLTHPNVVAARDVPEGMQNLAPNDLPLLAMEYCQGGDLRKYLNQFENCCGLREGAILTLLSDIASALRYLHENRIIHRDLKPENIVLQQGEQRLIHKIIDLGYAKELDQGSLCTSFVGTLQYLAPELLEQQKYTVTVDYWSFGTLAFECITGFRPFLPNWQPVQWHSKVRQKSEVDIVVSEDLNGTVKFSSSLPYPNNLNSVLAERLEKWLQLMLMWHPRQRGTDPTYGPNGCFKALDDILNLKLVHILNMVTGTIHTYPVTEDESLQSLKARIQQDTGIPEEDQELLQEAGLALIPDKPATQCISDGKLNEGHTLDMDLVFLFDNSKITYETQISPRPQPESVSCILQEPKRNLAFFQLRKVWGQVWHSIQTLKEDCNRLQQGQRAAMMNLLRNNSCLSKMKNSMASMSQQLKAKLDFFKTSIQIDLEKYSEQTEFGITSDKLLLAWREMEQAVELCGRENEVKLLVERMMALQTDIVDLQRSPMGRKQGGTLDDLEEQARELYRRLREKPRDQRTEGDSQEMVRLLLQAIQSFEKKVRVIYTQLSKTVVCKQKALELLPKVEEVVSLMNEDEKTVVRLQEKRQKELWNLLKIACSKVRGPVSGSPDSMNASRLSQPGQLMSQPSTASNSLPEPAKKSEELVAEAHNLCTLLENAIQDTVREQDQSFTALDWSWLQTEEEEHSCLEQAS
To be noted: read-out: Tm shift IKKb. The procedure:
as §1

Experiment [3] addresses T3, JAK1 (Homo sapiens, UniProt P23458).
T3 construct: purchased in-house (SGC Oxford thermal shift panel)
To be noted: read-out: Tm shift JAK1. The protocol: as §1

Experiment [4] addresses T4, MST3 (Homo sapiens, UniProt Q9Y6E0).
T4 construct: purchased in-house (SGC Oxford thermal shift panel)
To be noted: read-out: Tm shift MST3. The protocol:
as §1

The target in experiment [5] is T5, PKD3 (Homo sapiens, UniProt O94806).
T5 sequence (O94806 1-890): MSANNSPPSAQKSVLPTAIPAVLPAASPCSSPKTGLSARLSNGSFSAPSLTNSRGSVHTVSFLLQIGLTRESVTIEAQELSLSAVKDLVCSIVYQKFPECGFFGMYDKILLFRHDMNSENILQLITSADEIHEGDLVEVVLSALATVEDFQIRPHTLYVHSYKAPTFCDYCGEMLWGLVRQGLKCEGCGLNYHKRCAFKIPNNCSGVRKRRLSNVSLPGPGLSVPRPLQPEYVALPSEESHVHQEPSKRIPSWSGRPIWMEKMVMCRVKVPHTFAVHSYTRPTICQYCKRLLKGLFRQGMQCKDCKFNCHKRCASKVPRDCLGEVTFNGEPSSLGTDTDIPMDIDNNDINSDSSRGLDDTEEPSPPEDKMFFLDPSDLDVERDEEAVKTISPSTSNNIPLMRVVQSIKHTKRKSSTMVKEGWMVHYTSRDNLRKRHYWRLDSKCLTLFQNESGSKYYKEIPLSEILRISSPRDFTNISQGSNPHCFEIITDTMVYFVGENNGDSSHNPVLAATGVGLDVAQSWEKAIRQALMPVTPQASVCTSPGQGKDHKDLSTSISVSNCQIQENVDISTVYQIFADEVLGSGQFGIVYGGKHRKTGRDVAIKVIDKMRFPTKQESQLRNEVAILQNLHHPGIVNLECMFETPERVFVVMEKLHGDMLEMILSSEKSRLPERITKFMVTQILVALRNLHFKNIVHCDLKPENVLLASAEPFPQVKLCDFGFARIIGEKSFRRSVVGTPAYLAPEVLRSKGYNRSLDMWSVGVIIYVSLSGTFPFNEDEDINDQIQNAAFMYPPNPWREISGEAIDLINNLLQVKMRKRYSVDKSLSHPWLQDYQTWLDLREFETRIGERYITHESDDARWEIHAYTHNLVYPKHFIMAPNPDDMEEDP
To be noted: read-out: Tm shift PKD3. The procedure: as §1

In experiment [6] the target is STK33 (Homo sapiens, UniProt Q9BYT3). To be noted: read-out: Tm shift STK33. The protocol: as §1
Experiment [7] addresses YANK1 (Homo sapiens, UniProt Q8WU08). To be noted: read-out: Tm shift YANK1. The procedure: as §1

T4 sequence (Q9Y6E0 whole entry): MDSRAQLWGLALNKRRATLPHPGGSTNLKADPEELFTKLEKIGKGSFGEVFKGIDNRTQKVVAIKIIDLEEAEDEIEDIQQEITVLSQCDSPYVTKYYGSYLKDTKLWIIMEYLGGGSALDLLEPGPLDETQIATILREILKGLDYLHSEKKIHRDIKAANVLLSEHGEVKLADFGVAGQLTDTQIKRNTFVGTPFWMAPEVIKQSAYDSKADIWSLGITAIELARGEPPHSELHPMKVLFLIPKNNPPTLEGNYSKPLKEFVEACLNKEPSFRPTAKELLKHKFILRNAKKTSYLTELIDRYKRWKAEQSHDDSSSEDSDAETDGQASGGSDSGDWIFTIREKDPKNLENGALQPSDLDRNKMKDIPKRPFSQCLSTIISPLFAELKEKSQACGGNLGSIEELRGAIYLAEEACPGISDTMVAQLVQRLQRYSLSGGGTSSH
Sequence of STK33 (Q9BYT3 whole entry): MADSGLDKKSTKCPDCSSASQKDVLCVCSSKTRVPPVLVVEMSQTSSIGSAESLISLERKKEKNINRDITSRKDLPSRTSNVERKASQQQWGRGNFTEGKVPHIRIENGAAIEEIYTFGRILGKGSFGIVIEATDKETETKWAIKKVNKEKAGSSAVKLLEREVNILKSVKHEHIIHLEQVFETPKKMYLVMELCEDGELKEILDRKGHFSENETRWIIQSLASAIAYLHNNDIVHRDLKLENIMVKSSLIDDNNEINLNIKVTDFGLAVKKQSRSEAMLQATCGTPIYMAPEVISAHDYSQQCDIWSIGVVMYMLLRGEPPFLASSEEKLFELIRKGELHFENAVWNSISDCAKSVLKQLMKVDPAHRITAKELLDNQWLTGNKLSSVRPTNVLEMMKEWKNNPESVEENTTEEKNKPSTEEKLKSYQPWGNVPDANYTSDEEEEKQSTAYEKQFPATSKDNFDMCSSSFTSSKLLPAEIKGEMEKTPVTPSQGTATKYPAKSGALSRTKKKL
Sequence of YANK1 (Q8WU08 whole entry): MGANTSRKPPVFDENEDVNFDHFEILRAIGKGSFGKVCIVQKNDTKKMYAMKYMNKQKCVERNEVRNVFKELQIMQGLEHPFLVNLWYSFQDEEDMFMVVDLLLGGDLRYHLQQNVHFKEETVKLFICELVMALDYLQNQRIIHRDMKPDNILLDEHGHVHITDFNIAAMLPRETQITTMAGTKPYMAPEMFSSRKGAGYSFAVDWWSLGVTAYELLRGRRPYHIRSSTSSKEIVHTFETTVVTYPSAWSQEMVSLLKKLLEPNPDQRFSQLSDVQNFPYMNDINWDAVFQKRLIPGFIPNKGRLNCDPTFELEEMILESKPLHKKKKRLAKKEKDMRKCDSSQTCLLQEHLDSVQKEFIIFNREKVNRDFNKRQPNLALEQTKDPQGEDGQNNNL
T3 sequence (P23458 whole entry): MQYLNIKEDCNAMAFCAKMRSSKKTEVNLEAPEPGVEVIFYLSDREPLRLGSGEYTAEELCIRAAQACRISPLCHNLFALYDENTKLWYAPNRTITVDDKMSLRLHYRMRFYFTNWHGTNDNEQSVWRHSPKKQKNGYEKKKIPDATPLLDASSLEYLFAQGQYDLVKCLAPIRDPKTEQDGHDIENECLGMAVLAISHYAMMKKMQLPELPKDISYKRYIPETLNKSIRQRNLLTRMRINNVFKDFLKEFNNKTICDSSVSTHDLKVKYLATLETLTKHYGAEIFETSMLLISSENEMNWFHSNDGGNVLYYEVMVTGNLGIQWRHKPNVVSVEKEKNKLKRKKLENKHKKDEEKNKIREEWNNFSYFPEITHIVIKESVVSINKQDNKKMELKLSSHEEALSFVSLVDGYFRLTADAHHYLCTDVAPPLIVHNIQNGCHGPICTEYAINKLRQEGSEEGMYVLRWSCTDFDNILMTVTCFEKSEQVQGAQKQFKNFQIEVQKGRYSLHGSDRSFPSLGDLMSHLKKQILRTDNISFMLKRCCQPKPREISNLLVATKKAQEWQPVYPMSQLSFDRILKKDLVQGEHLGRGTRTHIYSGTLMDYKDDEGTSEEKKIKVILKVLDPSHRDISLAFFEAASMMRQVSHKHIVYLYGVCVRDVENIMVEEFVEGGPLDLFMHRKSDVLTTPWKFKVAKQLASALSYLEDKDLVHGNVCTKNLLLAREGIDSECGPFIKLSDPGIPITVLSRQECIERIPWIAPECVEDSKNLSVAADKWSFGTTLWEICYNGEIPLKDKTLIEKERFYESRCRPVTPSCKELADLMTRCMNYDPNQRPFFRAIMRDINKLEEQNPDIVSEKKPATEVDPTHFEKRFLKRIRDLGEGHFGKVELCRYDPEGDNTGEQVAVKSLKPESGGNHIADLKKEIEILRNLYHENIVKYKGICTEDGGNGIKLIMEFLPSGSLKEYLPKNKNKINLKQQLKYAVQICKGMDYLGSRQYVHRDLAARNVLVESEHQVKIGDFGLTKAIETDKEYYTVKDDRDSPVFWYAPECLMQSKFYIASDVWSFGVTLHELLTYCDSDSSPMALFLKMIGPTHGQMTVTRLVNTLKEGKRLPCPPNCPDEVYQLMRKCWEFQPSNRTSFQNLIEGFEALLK

`Cn1c2c(Cl)c(Cl)ccc2c2c(C#N)c[nH]c(=O)c21` [compound 3, 7,8-Dichloro-9-Methyl-1-Oxo-2,9-Dihydro-1H-Pyrido[3,4-b]Indole-4-Carbonitrile]: the ΔTm at 10 µM stood at 0.5 °C in experiment [1] (inhibitor 10 μM); 0.5 °C in experiment [2] (inhibitor 10 μM); 0.9 °C in experiment [3] (inhibitor 10 μM); 0.1 °C in experiment [4] (inhibitor 10 μM); 0.4 °C in experiment [5] (inhibitor 10 μM); 1.1 °C in experiment [6] (inhibitor 10 μM). Also, in experiment [7] (inhibitor 10 μM), the ΔTm at 10 µM was 0.3 °C.

As for `CCOC(=O)c1c(C(C#N)=CN)c2ccc(Cl)c(Cl)c2n1C` (mixture of isomers) [KH-CB20, (E/Z)-Ethyl 3-(2-Amino-1-Cyanovinyl)-6,7-Dichloro-1-Methyl-1H-Indole-2-Carboxylate], the ΔTm at 10 µM in experiment [1] was 0.8 °C; in experiment [2], 0.1 °C; in experiment [3], 1 °C; in experiment [4], -0.1 °C; in experiment [5] it was 0.3 °C; in experiment [6], 0.8 °C. Also, the ΔTm at 10 µM in experiment [7] is -0.3 °C.

Take `NC1=NC(=O)/C(=C2\CCNC(=O)c3[nH]c(Br)cc32)N1` [Hymenialdisine, hymenialdisine, reference compound]: the ΔTm at 10 µM is 2.1 °C in experiment [1] (inhibitor 10 μM); 0.7 °C in experiment [2] (inhibitor 10 μM); 0.3 °C in experiment [3] (inhibitor 10 μM); 1 °C in experiment [4] (inhibitor 10 μM); 2 °C in experiment [5] (inhibitor 10 μM); 3.9 °C in experiment [6] (inhibitor 10 μM). In experiment [7] (inhibitor 10 μM), the ΔTm at 10 µM came out at 0 °C.

For `CCOC(=O)c1c(/C(C#N)=C\N)c2ccc(Cl)c(Cl)c2n1C` [KH-CB19, (E)-Ethyl 3-(2-Amino-1-Cyanovinyl)-6,7-Dichloro-1-Methyl-1H-Indole-2-Carboxylate], the ΔTm at 10 µM in experiment [1] is 0.5 °C; in experiment [2] it was -0.1 °C; in experiment [3], 0.7 °C; in experiment [4], 0.2 °C; in experiment [5], 0.1 °C; in experiment [6], 0.3 °C. Moreover, in experiment [7], the ΔTm at 10 µM was -0.2 °C.

As for `CCOC(=O)c1c(C(C#N)=CN(C)C)c2ccc(Cl)c(Cl)c2n1C` (mixture of isomers) [compound 2, (E/Z)-Ethyl 6,7-Dichloro-3-[1-Cyano-2-(Dimethylamino)Vinyl]-1-Methyl-1H-Indole-2-Carboxylate], the ΔTm at 10 µM in experiment [1] (inhibitor 10 μM) was -0.5 °C; in experiment [2] (inhibitor 10 μM), 0.6 °C; in experiment [3] (inhibitor 10 μM) it was 0.2 °C; in experiment [4] (inhibitor 10 μM), -1.1 °C; in experiment [5] (inhibitor 10 μM), 0 °C; in experiment [6] (inhibitor 10 μM), 0.7 °C. In addition, the ΔTm at 10 µM in experiment [7] (inhibitor 10 μM) stood at 0 °C.
